Assay [1] concerns the target human histamine 4 receptor (hH4R) (Homo sapiens (Human), UniProt Q9H3N8). As to the kind of experiment: Binding affinity of human histamine 4 receptor (hH4R), [3H] labeled histamine displacement. The settings on record: hH4R-overexpressed cell membrane, [3H] histamine. The method in brief: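 Membranes of hH4R-overexpressing cells (25 μg) incubated with compound and [3H]histamine (diluted to 1 μM before addition) for 30 min at 27° C. Non-specific binding defined with histamine (100 μM before addition); bound radioligand collected by filtration on PEI-presoaked glass fibre, washed with 50 mM Tris-HCl pH 7.4, counted by scintillation (CPM).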

Assay [2] has as its system histamine-induced itching, ICR mice. As to the kind of experiment: Histamine-induced itching model in ICR mice. Format: in vivo. The settings on record: 50 mg/kg oral, histamine 300 nmol intradermal, 20 min count. How it is done:
(§1) Female, ICR mice (8 weeks old) were purchased from OrientBio Co., Ltd. The animals were housed under conditions of controlled temperature (23±3° C.), humidity (50±5%) and lighting with food and water available ad libitum.
The hair was clipped using clippers (8000AD, THRIVE) over the rostral part of the back 24 hours before the experiment under anesthesia with isoflurane. Histamine (300 nmol) was dissolved in saline and a volume of 40 μL injected intradermally into the rostral part of the back. Mice were dosed with either vehicle (20% cyclodextrin in second distilled water) or the compound by orally administration. The Compound (50 mg/kg) dissolved in a vehicle (20% cyclodextrin in second distilled water) and administered orally at a volume of 10 mL/kg.
(§2) Mice (n=10 per group) were divided into 3 groups (normal group, control group and experimental group). The animals were randomized for similar body weight distribution. A vehicle or the compound was administered 20 minutes before injection of histamine or saline. Immediately after intradermal injection, the animals were returned to an acrylic cage (approximately 30×30×30 cm, access production) composed of four cells, to which they had been acclimated for at least 1 hour before the experiment, for observation of itch responses. A camera (Samsung, VLUUNV30) was positioned above the mice to record their response. Itch was measured by blinded counting of the number of scratching in the 20 min period immediately after the intradermal injection. A number of scratching was defined as 3 or more individual rapid scratch movements with the hind paws around the injection site (J. Allergy Clin. Immunol. 2007, 19(1), 176-183). All data were analyzed by using Excel and Prism, and all values are expressed as the mean±S.E.M. The inhibitory effect of compounds is shown as a percentage of the maximal response to histamine (100% control group).
Statistical analysis was analyzed using one-way ANOVA with Dunnett test. Values of p<0.05 were considered statistically significant.

The subject of assay [3] is substance P-induced itching, ICR mice. Put plainly: Substance P-induced itching model in ICR mice. Format: in vivo. The settings on record: 50 mg/kg oral, substance P 100 nmol intradermal, 20 min count. How it is done:
as §1
The hair was clipped using clippers (8000AD, THRIVE) over the rostral part of the back 24 hours before the experiment under anesthesia with isoflurane. Substance P (100 nmol) was dissolved in saline and a volume of 40 μL injected intradermally into the rostral part of the back. Mice were dosed with either vehicle (20% cyclodextrin in second distilled water) or the compound by orally administration. The Compound (50 mg/kg) dissolved in a vehicle (20% cyclodextrin in second distilled water) and administered orally at a volume of 10 mL/kg.
as §2, with “distribution. A Vehicle or the” for “distribution. A vehicle or the”, “injection of substance P or saline.” for “injection of histamine or saline.”, “site (J. Toxicol. Sci. 2009, 34(4), 427-431; J. Pharmacol. Sci. 2006, 100, 285-288). All data” for “site (J. Allergy Clin. Immunol. 2007, 19(1), 176-183). All data”, “control group). Statistical analysis was analyzed using one-way ANOVA with Dunnett test. Values of p<0.05 were considered statistically significant.” for “control group).”

The target in assay [4] is human histamine 3 receptor (hH3R) (Homo sapiens (Human), UniProt Q9Y5N1). As to the kind of experiment: Binding affinity of human histamine 3 receptor (hH3R), [3H] labeled N-α-methylhistamine displacement. The settings on record: hH3R-overexpressed cell membrane, [3H] N-α-methylhistamine. The method in brief: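 Membranes from cells overexpressing hH3R (15 μg) were incubated with compound and [3H]N-α-methylhistamine (20 μM stock) in 50 mM Tris-HCl pH 7.4, 5 mM MgCl2 for 30 min at 27 °C. Bound radioligand was counted by scintillation after filtration; 200 μM (R)(−)-α-methylhistamine stock defined non-specific binding; IC50 derived.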

Molecules are shown by their SMILES.

human histamine 4 receptor (hH4R), sequence (Q9H3N8 whole entry): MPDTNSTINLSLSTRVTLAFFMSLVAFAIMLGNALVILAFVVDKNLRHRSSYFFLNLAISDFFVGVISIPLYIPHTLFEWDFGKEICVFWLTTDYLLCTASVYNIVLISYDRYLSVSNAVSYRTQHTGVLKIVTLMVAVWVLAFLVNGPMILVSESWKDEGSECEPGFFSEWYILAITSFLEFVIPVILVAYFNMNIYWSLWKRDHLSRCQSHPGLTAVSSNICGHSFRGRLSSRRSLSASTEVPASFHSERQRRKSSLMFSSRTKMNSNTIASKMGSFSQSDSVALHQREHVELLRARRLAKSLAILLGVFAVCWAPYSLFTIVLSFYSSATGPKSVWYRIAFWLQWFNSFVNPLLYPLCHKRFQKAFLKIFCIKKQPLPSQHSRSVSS
human histamine 3 receptor (hH3R), sequence (Q9Y5N1 whole entry): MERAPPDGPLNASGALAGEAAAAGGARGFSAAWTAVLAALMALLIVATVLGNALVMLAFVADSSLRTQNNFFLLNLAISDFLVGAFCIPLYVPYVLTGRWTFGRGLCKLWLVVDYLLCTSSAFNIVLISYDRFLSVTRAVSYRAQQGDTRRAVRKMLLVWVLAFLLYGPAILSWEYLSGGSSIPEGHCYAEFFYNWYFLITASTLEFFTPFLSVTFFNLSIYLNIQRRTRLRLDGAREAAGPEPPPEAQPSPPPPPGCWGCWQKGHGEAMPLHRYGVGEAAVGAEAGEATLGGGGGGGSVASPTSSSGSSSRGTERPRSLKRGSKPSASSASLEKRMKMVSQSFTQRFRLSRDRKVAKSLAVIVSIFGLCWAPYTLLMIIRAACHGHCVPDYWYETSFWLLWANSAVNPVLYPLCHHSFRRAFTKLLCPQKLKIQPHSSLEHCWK

Consider `CNC1CN(c2nc3ncc(Cl)cc3n3cnnc23)C1` [Compound 18, 1-(8-Chloropyrido[2,3-e][1,2,4]triazolo[4,3-a]pyrazin-4-yl)-N-methylazetidin-3-amine], for which the figures for the IC50 in assay [1] and in assay [4] were 55 nM and above 100000 nM, respectively. For the same molecule, the “Number of scratching (% changes from control group)” value in assay [2] was 84.3^1%. Also, the “Number of scratching (% change from control group)” value in assay [3] is reported as 42.6%.
The matching figures for `CN1CCN(c2nc3ncc(Cl)cc3n3cnnc23)CC1` [Compound 4, 8-Chloro-4-(4-methylpiperazin-1-yl)pyrido[2,3-e][1,2,4]triazolo[4,3-a]pyrazine]: 40 nM, 90000 nM, 94.3^1% and 50.8%.
Take `Clc1cnc2nc(N3CCNCC3)c3nncn3c2c1` [Compound 7, 8-Chloro-4-(piperazin-1-yl)pyrido[2,3-e][1,2,4]triazolo[4,3-a]pyrazine]: the results for the IC50 in assay [1] and in assay [4] were 133 nM and above 100000 nM, respectively. For the same molecule, the “Number of scratching (% changes from control group)” value in assay [2] was 61.2^1%. In assay [3], the “Number of scratching (% change from control group)” value is on record as 60.5^1%.
The matching figures for `CNC1CN(c2nc3ncc(Br)cc3n3cnnc23)C1` [Compound 24, 1-(8-Bromopyrido[2,3-e][1,2,4]triazolo[4,3-a]pyrazin-4-yl)-N-methylazetidin-3-amine]: 36 nM, above 100000 nM, 93.6^1% and 74.5^1%.
The matching figures for `CNC1CN(c2nc3ncc(I)cc3n3cnnc23)C1` [Compound 48, 1-(8-Iodopyrido[2,3-e][1,2,4]triazolo[4,3-a]pyrazin-4-yl)-N-methylazetidin-3-amine]: 65 nM, above 100000 nM, 67.3^1% and 33.5%.
The matching figures for `CNC1CN(c2nc3ncc(Br)cc3n3nnnc23)C1` [Compound 95, 1-(8-Bromopyrido[2,3-e]tetrazolo[1,5-a]pyrazin-4-yl)-N-methylazetidin-3-amine]: 44 nM, above 100000 nM, 98.2^1% and 80.7^1%.

For the origin of these results see patent publication US9586959B2, “Substituted tricyclic heterocycles as histamine 4 receptor inhibitors” (C&C RESEARCH LABORATORIES, priority 2011, dated 2017).
